Tests used:
RAD51 and 53BP1 = RAD51 and 53BP1 immunofluorescence; assay type: cell-based, human; conditions: olaparib 100 µM, 96 h
Method: 2 000-10 000 cells were plated on glass coverslips (Thermo Fisher Scientific) previously coated with poly-D-lysine hydrobromide (Sigma-Aldrich) and cultured until they were approximately 80 % confluent. They were washed with PBS, fixed with 4 % paraformaldehyde (PFA, Sigma-Aldrich) in PBS for 15 min at room temperature and rinsed twice with PBS. Next, cells were incubated with 0.1 M glycine (Sigma-Aldrich) in distilled water to quench PFA for 10 min at room temperature, and then their membranes were permeabilized with 0.2 % Triton X-100 (Sigma-Aldrich) in PBS for 10 min at room temperature. After two 5 min PBS washes, potential nonspecific antibody binding sites were blocked with 1 % bovine serum albumin (BSA; Sigma-Aldrich) diluted in PBST (PBS+0.1 % Tween 20; Sigma-Aldrich) for 30 min at room temperature. Cells were incubated overnight at 4 °C in the dark with primary antibody (see references in Table 3) diluted in 1 % BSA in PBST. The next day, cells were rinsed three times in PBS for 10 min each, and then incubated 1 h at room temperature in the dark with secondary antibody (see references in Table 3) diluted in 1 % BSA in PBST. After that, they were washed three times with PBS for 5 min each, and their nuclei were stained with 1 µg/mL Hoechst (Invitrogen, Thermo Fisher Scientific) diluted in PBS for 10 min. […]

HCC1937 cells = test: Proliferation assay (Cell Counting Kit-8); assay type: cell-based, human; conditions: Cx43_HCC1937 compared to EV_HCC1937; 100 and 200 µM olaparib, over 96 h, all concentrations and time points
Method: (§1) Proliferation of tumour cell lines was evaluated using the Cell Counting Kit-8 (Dojindo Molecular Technologies). This kit comprises WST-8, a highly water-soluble tetrazolium salt, which upon reduction by cellular dehydrogenases of viable cells, gives rise to a yellow formazan dye that is solube in cell culture media and can be quantitated. Briefly, similar number of cells (1 000-5 000) were plated in 96-well plates (Corning) and left to grow for the desired time period under different treatment conditions. Then, medium was renewed (100 µL volume/well) and 10 µL of CCK-8 reagent were added to each well. Plates were incubated in the dark for 3 h at 37 °C, and absorbance was measured at 450 nm in a NanoQuant Infinite 200 plate reader (Tecan).
Cell viability was either relativized to untreated controls for each cell line at each time point, in order to account for the already reduced proliferation of Cx43-restituted cells (top graph) or reported as raw absorbance value (bottom graph).
(§2) To further characterize its involvement in BRCA1/2 mutated cancer, Cx43 was restituted by plasmid transfection in BRCA1 mutated TNBC and ovarian carcinoma cell lines, HCC1937 and SNU251, respectively. […]

SNU251 cells = test: Proliferation assay (Cell Counting Kit-8); assay type: cell-based, human; conditions: Cx43-restored SNU251 vs EV, 100 and 200 µM olaparib, 96 h, beginning at 48 h
Method: as §1
In order to complement previous results with another clinically relevant PARPi-treated cancer, assays were repeated with BRCA1 mutated ovarian cancer cell line SNU251, efficiently nucleofected with EV or Cx43-restituting plasmids (Figure 8). SNU251 wild type (EV) cells had no native Cx43 expression, as assayed by western blot ( Figure 8.A).
as §2

Cx43_HCC1937 cells = test: 48 h olaparib dose-response curve, cell viability; assay type: cell-based; conditions: Homo sapiens
HCC1937 spheroids = test: Three-dimensional tumour spheroid proliferation (spheroid area); assay type: cell-based, human; conditions: for spheroid size, Cx43-restituted smaller than EV counterparts: after 8 days, 3000 initial cell density
Method: The bottom of 96-well flat bottom microplates (Greiner Bio-One) was coated with 1.5 % solution of UltraPure Low Melting Point Agarose (Invitrogen, Thermo Fisher Scientific). Agarose concave bottoms provide non-adhesive conditions and increase cell contacts. 100-200 µL of single-cell suspensions were plated on top of the agarose diluted in their respective media supplemented with 3.5 % Matrigel Matrix Basement Membrane Growth Factor Reduced (Corning) and 5 ng/mL human recombinant EGF (Sigma-Aldrich). Afterwards, plates were incubated under standard cell culture conditions and spheroids were monitored from day 2 onwards by optical microscopy.
Uniform-sized spheroids were produced by plating 3000 EV and Cx43_HCC1937 cells under ultra-low attachment conditions, as well as 5000 Cx43_HCC1937 cells in parallel to account for the expected anti-proliferative effect of Cx43 in untreated tumour cells (day -4) (Figure 7). […] Spheroids were individually tracked during this time and their size was registered every 48 h.
Afterwards, spheroid area measurements were pooled for each condition and EV spheroids were compared against Cx43_HCC1937 spheroids, either those plated at 3000 or 5000 initial cell densities.
Next, Cx43 involvement in the TNBC pathogenesis was studied under more physiological approaches, namely 3D spheroid culture (Figure 10.B) and Anoikis-inducing conditions (Figure 10.C). 3D spheroid culture (Figure 10.B) of HCC1937 cells for 12 days further corroborated the reduction in proliferation determined in 2D culture (Figure 10.A) resulting from Cx43 restoration.

O=C(c1cc(Cc2n[nH]c(=O)c3ccccc23)ccc1F)N1CCN(C(=O)C2CC2)CC1 [Olaparib, olaparib]
53BP1 foci (RAD51 and 53BP1; EV and Cx43_HCC1937): seemed to rise upon olaparib treatment in both cell lines alike
RAD51 foci (RAD51 and 53BP1; EV vs Cx43_HCC1937): increased just in EV_HCC1937 cells
cell viability (proliferation assay) (HCC1937 cells): robust and significant decrease in cell viability
response to olaparib (proliferation) (SNU251 cells): significantly better response to olaparib than EV cells
IC50 (Cx43_HCC1937 cells): 350 µM
spheroid appearance (HCC1937 spheroids; Cx43_HCC1937 spheroids (3000 and 5000), 8 days of 600 µM olaparib, vs well-defined EV_HCC1937 spheroids): almost non-existent
spheroid size, Cx43-restituted smaller than EV counterparts (HCC1937 spheroids; olaparib 200 µM): 41.7%
spheroid size, Cx43-restituted smaller than EV counterparts (HCC1937 spheroids; olaparib 400 µM): 29.68%
spheroid size, Cx43-restituted smaller than EV counterparts (HCC1937 spheroids; olaparib 600 µM): 12.57%

— patent EP4463162B1, “CONNEXIN 43 FOR USE IN TREATING BRCA1/2-MUTATED CANCER” (Fundación Profesor Novoa Santos, priority 2022, dated 2023)
